Test results taken from patent US8901111B2, “Aryl-substituted heterocyclic urea modulators of fatty acid amide hydrolase” (Janssen Pharmaceutica NV, priority 2009, dated 2014).
Structures can show the parent of a compound that is named as a salt.

Assays:
rat FAAH = target: T1, rat FAAH (Rattus norvegicus, UniProt P97612); test: Assay Method 2: FAAH assay, 3H-anandamide hydrolysis in homogenate of cells transfected with rat FAAH; type: biochemical; conditions: cell homogenate, 3H-AEA 80 nM, 1 h at rt, average of results
T1 construct: expressed in transfected cells; crude homogenate
T1 sequence (P97612 1-579): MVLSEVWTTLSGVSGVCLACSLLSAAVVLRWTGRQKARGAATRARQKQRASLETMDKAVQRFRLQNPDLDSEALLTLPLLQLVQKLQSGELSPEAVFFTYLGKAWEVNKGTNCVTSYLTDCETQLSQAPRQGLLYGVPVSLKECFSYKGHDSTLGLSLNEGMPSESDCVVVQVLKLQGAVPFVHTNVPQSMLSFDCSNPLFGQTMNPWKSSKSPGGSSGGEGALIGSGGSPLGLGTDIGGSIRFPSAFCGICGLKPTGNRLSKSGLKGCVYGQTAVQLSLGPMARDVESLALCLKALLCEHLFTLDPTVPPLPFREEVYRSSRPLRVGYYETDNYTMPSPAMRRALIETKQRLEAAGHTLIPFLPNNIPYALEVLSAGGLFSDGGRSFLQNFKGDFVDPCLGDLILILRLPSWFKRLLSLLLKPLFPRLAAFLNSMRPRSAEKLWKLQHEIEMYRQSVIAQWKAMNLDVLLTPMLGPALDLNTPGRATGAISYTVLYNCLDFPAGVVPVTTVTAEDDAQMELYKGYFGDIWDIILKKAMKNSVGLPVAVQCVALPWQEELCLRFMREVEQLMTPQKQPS
Method: A. Transfection of Cells with Rat FAAH
(§1) A 10-cm tissue culture dish with a confluent monolayer of SK-N-MC cells was split 2 days (d) prior to transfection. Using sterile technique, the media was removed and the cells were detached from the dish by the addition of trypsin. One fifth of the cells were then placed onto a new 10-cm dish. Cells were grown in a 37° C. incubator with 5% CO2 in Minimal Essential Media Eagle with 10% Fetal Bovine Serum. After 2 d, cells were approximately 80% confluent. These cells were removed from the dish with trypsin and pelleted in a clinical centrifuge. The pellet was re-suspended in 400 μL complete media and transferred to an electroporation cuvette with a 0.4 cm gap between the electrodes. Supercoiled rat FAAH cDNA (1 μg) was added to the cells and mixed. The voltage for the electroporation was set at 0.25 kV, and the capacitance was set at 960 μF. After electroporation, the cells were diluted into complete media (10 mL) and plated onto four 10-cm dishes. Because of the variability in the efficiency of electroporation, four different concentrations of cells were plated. The ratios used were 1:20, 1:10, and 1:5, with the remainder of the cells being added to the fourth dish. The cells were allowed to recover for 24 h before adding the selection media (complete media with 600 μg/mL G418). After 10 d, dishes were analyzed for surviving colonies of cells. Dishes with well-isolated colonies were used. Cells from individual colonies were isolated and tested.
(§2) T84 frozen cell pellets or transfected SK-N-MC cells (contents of 1×15 cm culture dishes) were homogenized in 50 mL of FAAH assay buffer (125 mM Tris, 1 mM EDTA, 0.2% Glycerol, 0.02% Triton X-100, 0.4 mM Hepes, pH 9). The assay mixture consisted of 50 μL of the cell homogenate, 10 μL of the test compound, and 40 μL of anandamide [1-^3H-ethanolamine] (^3H-AEA, Perkin-Elmer, 10.3 Ci/mmol), which was added last, for a final tracer concentration of 80 nM. The reaction mixture was incubated at rt for 1 h. During the incubation, 96-well Multiscreen filter plates (catalog number MAFCNOB50; Millipore, Bedford, Mass., USA) were loaded with 25 μL of activated charcoal (Multiscreen column loader, catalog number MACL09625, Millipore) and washed once with 100 μL of MeOH. Also during the incubation, 96-well DYNEX MicroLite plates (catalog number NL510410) were loaded with 100 μL of MicroScint40 (catalog number 6013641, Packard Bioscience, Meriden, Conn., USA). After the 1 h incubation, 60 μL of the reaction mixture were transferred to the charcoal plates, which were then assembled on top of the DYNEX plates using Centrifuge Alignment Frames (catalog number MACF09604, Millipore). The unbound labeled ethanolamine was centrifuged through to the bottom plate (5 min at 2000 rpm), which was preloaded with the scintillant, as described above. The plates were sealed and left at rt for 1 h before counting on a Hewlett Packard TopCount.
(§3) Results for compounds tested in these assays are summarized in Table 1, as an average of results obtained. Compounds were tested in the free base or trifluoroacetic acid salt form. Compounds tested in the trifluoroacetic acid salt form are indicated as such by a “*” designation after the example number. Where activity is shown as greater than (>) a particular value, the value is the solubility limit of the compound in the assay medium or the highest concentration tested in the assay.

FAAH = target: T2, FAAH (Homo sapiens, UniProt O00519); test: Assay Method 1: FAAH assay, 3H-anandamide hydrolysis in homogenate of cells transfected with human FAAH; type: biochemical; set-up: expressed in transfected cells; crude homogenate (T84 cell pellets named as alternative); conditions: cell homogenate, 3H-AEA 80 nM, 1 h at rt, average of results
T2 sequence (O00519 1-579): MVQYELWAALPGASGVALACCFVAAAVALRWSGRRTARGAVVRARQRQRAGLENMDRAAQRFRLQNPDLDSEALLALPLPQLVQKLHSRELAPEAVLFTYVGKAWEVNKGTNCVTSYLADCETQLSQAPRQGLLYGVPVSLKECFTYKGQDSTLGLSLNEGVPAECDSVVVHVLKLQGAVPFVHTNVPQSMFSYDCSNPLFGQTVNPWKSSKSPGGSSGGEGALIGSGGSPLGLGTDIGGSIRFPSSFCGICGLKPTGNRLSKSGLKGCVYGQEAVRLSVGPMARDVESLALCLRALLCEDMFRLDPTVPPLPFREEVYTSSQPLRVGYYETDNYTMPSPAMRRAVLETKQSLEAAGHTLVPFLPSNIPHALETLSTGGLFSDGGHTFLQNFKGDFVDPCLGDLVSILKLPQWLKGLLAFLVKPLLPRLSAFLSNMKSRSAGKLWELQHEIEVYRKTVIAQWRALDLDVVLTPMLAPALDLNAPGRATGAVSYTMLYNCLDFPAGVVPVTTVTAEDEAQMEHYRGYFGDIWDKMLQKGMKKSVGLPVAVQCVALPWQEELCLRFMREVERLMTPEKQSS
Method: A. Transfection of Cells with Human FAAH
as §1, with “Supercoiled human” for “Supercoiled rat”, “[…]” for “960 μF.”
as §2, §3

Row | IC50 (rat FAAH) | IC50 (FAAH) | Structure (SMILES)
1 | 0.43 µM | 0.2 µM | O=C(Nc1cccnc1)N1CC(CCOc2ccc3ccccc3n2)C1 [Example 36, 3-[2-(Quinolin-2-yloxy)-ethyl]-azetidine-1-carboxylic acid pyridin-3-ylamide]
2 | 0.82 µM | 0.14 µM | C#Cc1cccc(OCCC2CN(C(=O)Nc3cccnc3)C2)c1 [Example 37, 3-[2-(3-Ethynyl-phenoxy)-ethyl]-azetidine-1-carboxylic acid pyridin-3-ylamide, trifluoroacetate salt]
3 | 0.005 µM | 0.027 µM | O=C(Nc1cncc2ccccc12)N1CC(CCOc2cccc(Oc3ccc(Cl)cc3)c2)C1 [Example 38, 3-{2-[3-(4-Chloro-phenoxy)-phenoxy]-ethyl}-azetidine-1-carboxylic acid isoquinolin-4-ylamide]
4 | 0.01 µM | 0.013 µM | O=C(Nc1ccc(-n2nccn2)nc1)N1CC(CCOc2cccc(Oc3ccc(Cl)cc3)c2)C1 [Example 39, 3-{2-[3-(4-Chloro-phenoxy)-phenoxy]-ethyl}-azetidine-1-carboxylic acid (6-[1,2,3]triazol-2-yl-pyridin-3-yl)-amide]
5 | 0.004 µM | 0.003 µM | O=C(Nc1cnc2[nH]ccc2c1)N1CC(CCOc2cccc(Oc3ccc(Cl)cc3)c2)C1 [Example 40, 3-{2-[3-(4-Chloro-phenoxy)-phenoxy]-ethyl}-azetidine-1-carboxylic acid (1H-pyrrolo[2,3-b]pyridin-5-yl)-amide]
6 | 1 µM | 3 µM | O=C(Nc1ccc2nccn2c1)N1CC(CCOc2cccc(Oc3ccc(Cl)cc3)c2)C1 [Example 41, 3-{2-[3-(4-Chloro-phenoxy)-phenoxy]-ethyl}-azetidine-1-carboxylic acid imidazo[1,2-a]pyridin-6-ylamide]
7 | 0.024 µM | 0.03 µM | O=C(Nc1cnc2ccccn12)N1CC(CCOc2cccc(Oc3ccc(Cl)cc3)c2)C1 [Example 42, 3-{2-[3-(4-Chloro-phenoxy)-phenoxy]-ethyl}-azetidine-1-carboxylic acid imidazo[1,2-a]pyridin-3-ylamide]
8 | 0.001 µM | 0.004 µM | O=C(Nc1noc2ccccc12)N1CC(CCOc2cccc(Oc3ccc(Cl)cc3)c2)C1 [Example 43, 3-{2-[3-(4-Chloro-phenoxy)-phenoxy]-ethyl}-azetidine-1-carboxylic acid benzo[d]isoxazol-3-ylamide]
9 | 0.027 µM | 0.013 µM | O=C(Nc1cccnc1)N1CC(CCOc2cccc(Oc3ccc(Cl)cc3)c2)C1 [Example 44, 3-{2-[3-(4-Chloro-phenoxy)-phenoxy]-ethyl}-azetidine-1-carboxylic acid pyridin-3-ylamide]
10 | 0.043 µM | 0.7 µM | O=C(Nc1cccnc1)N1CC(CCOc2ccc(Cl)c(C(F)(F)F)c2)C1 [Example 45, 3-[2-(4-Chloro-3-trifluoromethyl-phenoxy)-ethyl]-azetidine-1-carboxylic acid pyridin-3-ylamide]
11 | 0.615 µM | 1.6 µM | O=C(Nc1cccnc1)N1CC(CCOc2cccc(C(F)(F)F)c2)C1 [Example 46, 3-[2-(3-Trifluoromethyl-phenoxy)-ethyl]-azetidine-1-carboxylic acid pyridin-3-ylamide]
12 | 0.25 µM | 1 µM | O=C(Nc1cccnc1)N1CC(CCOc2cc(Cl)cc(Cl)c2)C1 [Example 47, 3-[2-(3,5-Dichloro-phenoxy)-ethyl]-azetidine-1-carboxylic acid pyridin-3-ylamide]
13 | 0.005 µM | 0.001 µM | O=C(Nc1cnccc1Cl)N1CC(CCOc2cccc(Oc3ccc(Cl)cn3)c2)C1 [Example 48, 3-{2-[3-(5-Chloro-pyridin-2-yloxy)-phenoxy]-ethyl}-azetidine-1-carboxylic acid (4-chloro-pyridin-3-yl)-amide]
14 | 0.033 µM | 0.009 µM | O=C(Nc1cnccc1Cl)N1CCC(COc2ccc(Cl)c(Cl)c2)C1 (stereo not drawn) [Example 49, N-(4-Chloropyridin-3-yl)-3-[(3,4-dichlorophenoxy)methyl]pyrrolidine-1-carboxamide]
15 | 0.097 µM | 0.009 µM | CS(=O)(=O)c1ccc(Oc2cccc(OCC3CCN(C(=O)Nc4cnccc4Cl)C3)c2)cc1 (stereo not drawn) [Example 50, N-(4-Chloropyridin-3-yl)-3-({3-[4-(methylsulfonyl)phenoxy]phenoxy}methyl)pyrrolidine-1-carboxamide]
16 | 0.062 µM | 0.2 µM | O=C(Nc1cccnc1)N1CCC(COc2cccc(Oc3ccc(Cl)cc3)c2)C1 (stereo not drawn) [Example 51, 3-{[3-(4-Chlorophenoxy)phenoxy]methyl}-N-pyridin-3-ylpyrrolidine-1-carboxamide]
17 | 1 µM | 0.1 µM | CS(=O)(=O)c1ccc(Oc2cccc(OCC3CCN(C(=O)Nc4cccnc4)C3)c2)cc1 (stereo not drawn) [Example 52, 3-({3-[4-(Methylsulfonyl)phenoxy]phenoxy}methyl)-N-pyridin-3-ylpyrrolidine-1-carboxamide]
18 | > 10 µM | > 10 µM | O=C(Nc1cccnc1)N1CCC(CCOc2ccccc2)C1 (stereo not drawn) [Example 54, 3-(2-Phenoxy-ethyl)-pyrrolidine-1-carboxylic acid pyridin-3-ylamide]
